This passage reports kon results from BindingDB's records for doi:10.1016/s0960-894x(98)00253-4 (San Francisco State University, 1999).

The target of the test is T1, Gamma-glutamyl hydrolase (Homo sapiens, UniProt Q92820).
T1 sequence (Q92820 whole entry): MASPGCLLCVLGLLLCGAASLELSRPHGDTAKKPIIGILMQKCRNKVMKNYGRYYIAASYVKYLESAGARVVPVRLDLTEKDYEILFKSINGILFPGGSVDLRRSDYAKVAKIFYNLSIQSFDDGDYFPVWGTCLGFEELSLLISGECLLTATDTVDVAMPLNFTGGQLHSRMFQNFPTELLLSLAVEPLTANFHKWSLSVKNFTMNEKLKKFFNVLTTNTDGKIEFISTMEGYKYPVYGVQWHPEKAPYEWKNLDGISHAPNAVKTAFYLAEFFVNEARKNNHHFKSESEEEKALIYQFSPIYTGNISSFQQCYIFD
Kind of test: ChEBML_68750. The note with it: read-out: kon (M-1-s-1). As for the experimental part:
Compound was tested for inhibitory potency against gamma-Glutamyl Hydrolase.

Turning to `COP(=O)(N[C@@H](CCC(=O)O)C(=O)O)c1ccccc1` (some centres not stated), the on-rate constant (kon) was 4400 M⁻¹ s⁻¹.
With `COP(=O)(N[C@@H](CCC(=O)O)C(=O)O)OC`, the kon came to 177000 M⁻¹ s⁻¹.
